These results are taken from the RepoRT retention time repository (doi:10.1016/j.chroma.2015.11.014).

The data set can be described thus: RP, Agilent ZORBAX Eclipse Plus C18, 150 × 2.1 mm, 3.5 µm, 40 °C, 0.3 mL/min, estimated dead time 1.1 min; A: water + 0.1% formic acid; B: acetonitrile + 0.1% formic acid; gradient (min/%B) 0/2 1/2 2/20 16.5/98 22/98. The settings on record: stereoisomer not certain.

As for `CC[N+](CC)(CC([O-])=Nc1c(C)cccc1C)Cc1ccccc1`, the LC retention time is 7.58 min.
In the case of `CC(C)c1ccccc1OP(=O)(Oc1ccccc1)Oc1ccccc1C(C)C`, the LC retention time is 17.4 min.
The figure for `CC(C)Cc1ccc(C(C)C(=O)O)cc1` (configuration not stated) is 12.8 min.
The value for `CCN(CC)C(=O)C(C)Oc1cccc2ccccc12` (configuration not stated) was 12.6 min; that for `Nc1nc(=S)c2[nH]cnc2[nH]1` was 2.69 min; that for `CN1CCCC1=O` was 4.39 min.
The value for `CC(=O)Nc1ccc(O)cc1` was 5.02 min.
For the molecule `Nc1nc(NC2CC2)c2ncn(C3C=CC(CO)C3)c2n1` (configuration not stated), the LC retention time is 5.09 min.
The value for `CC(C(=O)O)c1cccc(Oc2ccccc2)c1` (configuration not stated) was 11.8 min; that for `CCOC(=O)C1=C(C)NC(C)=C(C(=O)OC)C1c1cccc([N+](=O)[O-])c1` (configuration not stated) was 12.4 min.
The value for `CC(C)COP(=O)(OCC(C)C)OCC(C)C` was 14 min; that for `c1ccc2scnc2c1` was 8.78 min.
Consider `O=C1CC2(CCCCC2)C(=O)N1`, for which the LC retention time was 7.4 min.
As for `Cc1c[nH]c(=O)[nH]c1=O`, the LC retention time was 3.23 min.
For `CC(O)CCCCn1c(=O)c2c(ncn2C)n(C)c1=O` (configuration not stated), the LC retention time is 6.42 min.
For the molecule `COc1ccc(C(C[N+](C)(C)[O-])C2(O)CCCCC2)cc1` (configuration not stated), the LC retention time is 7.25 min.
The figure for `CCCCCCCCOS(=O)(=O)O` is 9.59 min.
The figure for `Nc1nc2c(ncn2COCC(=O)O)c(=O)[nH]1` is 2.92 min; for `O=S(=O)(O)c1ccc2nc(-c3ccccc3)[nH]c2c1` it is 5.04 min; for `COP(=O)(NC(C)=O)SC` (configuration not stated) it is 4.5 min.
The value for `CCC(CCC(C)O)COC(=O)C(C#N)=C(c1ccccc1)c1ccccc1` (configuration not stated) was 13.8 min; that for `CC(=O)C1(O)CCC2C3CC(C)C4=CC(=O)CCC4(C)C3CCC21C` (configuration not stated) was 12.5 min; that for `C#CC1(O)CCC2C3CCc4cc(OC)ccc4C3CCC21C` (configuration not stated) was 14.5 min.
In the case of `CN1C2CCC1C(C(=O)O)C(OC(=O)c1ccccc1)C2` (configuration not stated), the LC retention time was 5.64 min.
The figure for `CCCCCCCCCCCC[N+](C)(C)C` is 10 min; for `CC(N)c1nc2ccccc2s1` (configuration not stated) it is 5.16 min.
Take `CSc1nc(NC(C)C)nc(NC(C)C)n1`: the LC retention time is 9.53 min.
The value for `CC(C)c1ccc(OP(=O)(Oc2ccc(C(C)C)cc2)Oc2ccc(C(C)C)cc2)cc1` was 18.9 min; that for `CCN1CCCC1CNC(=O)c1cc(S(=O)(=O)CC)c(N)cc1OC` (configuration not stated) was 5.57 min; that for `CCOC(=O)C(C#N)=C(c1ccccc1)c1ccccc1` was 13.6 min.
The value for `COC[P+](c1ccccc1)(c1ccccc1)c1ccccc1` was 7.5 min; that for `CCOC(=O)c1cnc(N)nc1N` was 4.61 min; that for `O=P(O)(c1ccccc1)c1ccccc1` was 7.24 min.
The figure for `CC12CCC3c4ccc(O)cc4CCC3C1CC(O)C2=O` (configuration not stated) is 8.67 min; for `CC(C)(C)NCC(O)c1cc(O)cc(O)c1` (configuration not stated) it is 4.55 min.
For the molecule `CCCCCC[N+](CCCCCC)(CCCCCC)CCCCCC`, the LC retention time is 13.1 min.
The figure for `O=C([O-])CC[P+](c1ccccc1)(c1ccccc1)c1ccccc1` is 6.75 min.
The value for `Cc1cccc(C(=O)O)c1` was 8.59 min; that for `COC1C(O)CC(=O)OC(C)CC=CC=CC(OC2CCC(N(C)C)C(C)O2)C(C)CC(CC=O)C1OC1OC(C)C(OC2CC(C)(O)C(O)C(C)O2)C(N(C)C)C1O` (configuration not stated) was 5.77 min; that for `CC1=CC(=O)NS(=O)(=O)O1` was 4.12 min.
On to `c1ccc(CNCc2ccccc2)cc1`, for which the LC retention time was 6 min.
The figure for `CN1C(=O)NC(=O)C1(C)C` is 5.06 min.
The figure for `NC(=O)c1ccccc1` is 5.64 min; for `CCCCCCCCCCCCCCCCCCCC[N+](C)(C)C` it is 15.7 min; for `COc1cc(O)c(C(=O)c2ccccc2)cc1S(=O)(=O)O` it is 7.48 min.
The value for `Cc1ccc(C(C)NC(=O)C(NC(=O)OC(C)C)C(C)C)cc1` (configuration not stated) was 11.9 min.
Take `CC(C)CC(C)Nc1ccc(Nc2ccccc2)cc1` (configuration not stated): the LC retention time is 9.19 min.
The value for `CC(C)NCC(O)COc1ccc(CCO)cc1` (configuration not stated) was 5.11 min; that for `Cc1nnc(-c2ccccc2)c(=O)n1N` was 6.78 min; that for `CCN(C)C(=O)Oc1cccc(C(C)N(C)C)c1` (configuration not stated) was 6.08 min.
The value for `CN(C)C(=N)N=C(N)N` was 1.52 min.
The figure for `CCC1OC(=O)CC(O)C(C)C(OC2OC(C)C(OC3CC(C)(O)C(O)C(C)O3)C(N(C)C)C2O)C(CC=O)CC(C)C(=O)C=CC(C)=CC1COC1OC(C)C(O)C(OC)C1OC` (configuration not stated) is 8.18 min; for `Nc1ccn(C2CSC(C(=O)O)O2)c(=O)n1` (configuration not stated) it is 2.46 min.
Turning to `NC(=O)c1ccc[n+](C2OC(COP(=O)(O)OP(=O)([O-])OCC3OC(n4cnc5c(N)ncnc54)C(O)C3O)C(O)C2O)c1` (configuration not stated), the LC retention time is 2.09 min.
Turning to `COc1ccc2nc(SCc3ncc(C(=O)O)c(OC)c3C)[nH]c2c1`, the LC retention time is 5.75 min.
The figure for `CCOCCOC(=O)Nc1ccc(C)c(NC(=O)OCCOCC)c1` is 9.91 min; for `CNCc1ccc(CSCCNC(=C[N+](=O)[O-])NC)o1` it is 4.77 min; for `CCN1C=CN(C)C1` it is 1.34 min.
The figure for `Cc1cc(C)c(C(=O)P(=O)(c2ccccc2)c2ccccc2)c(C)c1` is 14.1 min.
The figure for `CC(Cc1ccc(C(C)C(=O)O)cc1)C(=O)O` (configuration not stated) is 8.48 min.
For the molecule `Nc1ccc2c(c1)C(=O)OC21c2ccc(O)cc2Oc2cc(O)ccc21`, the LC retention time is 8.16 min.
The figure for `CC(=O)c1ccc(C(=O)O)cc1` is 7.1 min.
As for `Cc1c(N(C)C)c(=O)n(-c2ccccc2)n1C`, the LC retention time is 4.71 min.
The figure for `COC12C(COC(N)=O)C3=C(C(=O)C(C)=C(N)C3=O)N1CC1NC12` (configuration not stated) is 5.59 min; for `Nc1ccc(S(=O)(=O)Nc2nccs2)cc1` it is 5.37 min.
On to `CCCCC[N+](CCCC)(CCCC)CCCC`, for which the LC retention time was 9.57 min.
The value for `CNCC(O)c1cccc(O)c1` (configuration not stated) was 2.73 min; that for `O=C(c1ccc(O)cc1O)c1ccc(O)cc1O` was 8.37 min.
The value for `Nc1nc(NC2CC2)c2ncn(C3C=CC(C(=O)O)C3)c2n1` (configuration not stated) was 5.19 min.
The figure for `COC1=C(C)C(=O)C2=C(C1=O)C(COC(N)=O)C1(OC)C3NC3CN21` (configuration not stated) is 7.05 min.
As for `CCSc1nc2ccccc2s1`, the LC retention time is 13.7 min.
On to `CC1c2cccc(O)c2C(O)=C2C(=O)C3(O)C(O)=C(C(N)=O)C(=O)C(N(C)C)C3C(O)C21` (configuration not stated), for which the LC retention time is 6.5 min.
The value for `COc1ccc2c3c1OC1C(=O)C=CC4(O)C(C2)N(C)CCC314` (configuration not stated) was 5.37 min.
On to `O=C(OC1CC2CCC(C1)[N+]21CCCC1)C(O)(c1ccccc1)c1ccccc1` (configuration not stated), for which the LC retention time is 7.41 min.
For `O=c1[nH]c(=O)c2ccccc2[nH]1`, the LC retention time is 5.39 min.
The figure for `Cn1cnc2c(=O)[nH]c(=O)[nH]c21` is 2.38 min.
The value for `O=C(O)c1cc(O)c2c(c1)C(=O)c1cccc(O)c1C2=O` was 10.8 min; that for `CCOC(=O)Nc1ccc(C)c(NC(=O)OCC)c1` was 10.1 min; that for `O=C(O)c1c2ccccc2nc2ccccc12` was 4.66 min.
The value for `CNC(=O)Oc1ccccc1OC(C)C` was 9.47 min; that for `COC1CC(CC2CCC(C)C(C(C)C(=O)O)O2)OC2(OC(C)(C3CCC(C)(C4OC(C5OC(O)(CO)C(C)CC5C)CC4C)O3)CC2C)C1C` (configuration not stated) was 21.2 min.
For the molecule `CC(=O)Nc1ccc(C(=O)O)cc1`, the LC retention time was 5.59 min.
Take `Nc1ccn(C2CSC(CO)O2)c(=O)n1` (configuration not stated): the LC retention time is 3.1 min.
On to `CC(C)NCC(O)COc1ccc(CC(N)=O)cc1` (configuration not stated), for which the LC retention time was 4.62 min.
Take `CCCc1nn(C)c2c(=O)[nH]c(-c3cc(S(=O)(=O)N4CCN(C)CC4)ccc3OCC)nc12`: the LC retention time was 7.28 min.
The value for `O=P(O)(Oc1ccccc1)Oc1ccccc1` was 8.14 min; that for `NC12CC3CC(CC(C3)C1)C2` was 5.15 min; that for `CC(C)CC[P+](c1ccccc1)(c1ccccc1)c1ccccc1` was 9.31 min.
The figure for `Cn1c(N)nc2nc[nH]c2c1=O` is 2.34 min.
The figure for `CC(=O)OCCCC[P+](c1ccccc1)(c1ccccc1)c1ccccc1` is 8.85 min; for `O=P(O)(O)c1ccccc1` it is 3.09 min; for `CC(C)OP(=O)(Oc1ccccc1)Oc1ccccc1` it is 12.8 min.
On to `O=C(O)CC(O)(CC(=O)O)C(=O)O`, for which the LC retention time is 2.08 min.
The value for `Oc1ccc(Oc2ccccc2)cc1` was 11.1 min; that for `CNCCOC(c1ccccc1)c1ccccc1` was 7.56 min; that for `Cc1ncsc1CCO` was 4.25 min.
Turning to `CC12CCC3c4ccc(O)cc4CCC3C1CCC2=O` (configuration not stated), the LC retention time is 11.2 min.
The value for `Cc1ccccc1N=C(N)N=C(N)N` was 4.67 min; that for `C#CC1(O)CCC2C3CCC4=CC(=O)CCC4(C)C3CCC21C` (configuration not stated) was 11.7 min; that for `CN1CCN2c3ncccc3Cc3ccccc3C2C1` (configuration not stated) was 5.46 min.
The figure for `O=C1NC(=O)C(c2ccccc2)(c2ccc(O)cc2)N1` (configuration not stated) is 7.26 min.
The value for `CCCCCCCCCC(=O)N(C)C` was 13.6 min.
